{
  "source": "patent US6656920B2",
  "about": "“Composition and method for promoting oral health” (Amarillo Biosciences, Inc., priority 2000, dated 2003)",
  "key": {"[1]": {"tested_on": "subjects with primary Sjögren's syndrome", "experiment": "Phase 2 trial, 12 weeks, four dosages of IFN lozenges versus CAM placebo", "assay_type": "in vivo, human", "conditions": "Phase 2, placebo (200 mg CAM) treated patients", "description": "(§1) The purposes of our investigations were to examine the safety and efficacy of four different dosages of IFN lozenges compared to placebo in subjects with primary Sjögren's syndrome over a 12-week period in a Phase 2 trial, and to examine the best dose from our Phase 2 trial in a 24-week Phase 3 trial. The primary endpoints of our Phase 2 and Phase 3 trials were measurements of unstimulated saliva and stimulated saliva and subjective assessments of dry mouth. The IFN-α was delivered to the patients in 200 mg lozenges consisting of crystalline anhydrous maltose (CAM). The placebo was 200 mg CAM without IFN in both (Phase 2 and Phase 3) clinical trials. […] The IFN-treated group did even better (73% and 81%, respectively), but the beneficial effect of CAM on UWS was striking. […] Not only will this benefit patients with Sjögren's syndrome, but CAM should benefit people with dry mouth from other causes."}, "[2]": {"tested_on": "subjects with primary Sjögren's syndrome", "experiment": "Phase 3 trial, 24 weeks, IFN lozenges versus 200 mg CAM placebo lozenges", "assay_type": "in vivo, human", "description": "as §1"}, "[3]": {"tested_on": "subjects with Sjögren's syndrome", "conditions": "no sustained benefit in controlled clinical trials; cited from earlier work"}, "[4]": {"tested_on": "subjects with Sjögren's syndrome", "conditions": "at 24 weeks, 30 subjects per group, p<0.001; cited from earlier work"}},
  "data": [
    {"compound": "OC[C@H]1O[C@H](O[C@H]2[C@H](O)[C@@H](O)[C@H](O)O[C@@H]2CO)[C@H](O)[C@@H](O)[C@@H]1O", "note": "[CAM, crystalline anhydrous maltose]", "values": [
      {"measurement": "patients with an increase in UWS by 12 weeks", "setting": "[1]", "result": "9 of 18"},
      {"measurement": "overall result of lozenge administration", "setting": "[2]; 200 mg maltose lozenges three times daily", "result": "Good results"},
      {"measurement": "patients with an increase in unstimulated whole saliva (UWS)", "setting": "[2]; Phase 3, after 6 months of daily treatment, 200 mg lozenges", "result": 63.3, "unit": "%"}
    ]},
    {"compound": "CN(Cc1cc(Br)cc(Br)c1N)C1CCCCC1", "note": "[bromhexine]", "values": [
      {"measurement": "salivary output", "setting": "[3]", "result": "increase salivary output transiently"}
    ]},
    {"compound": "CC1OC2(CS1)CN1CCC2CC1", "note": "(stereo not shown) [cevimeline]", "values": [
      {"measurement": "salivary output", "setting": "[3]", "result": "increase salivary output transiently"}
    ]},
    {"compound": "sucralfate", "values": [
      {"measurement": "subjects with ≧100% increase from baseline in stimulated whole salivary flow", "setting": "[4]", "result": 3, "unit": "%"}
    ]},
    {"compound": "CC[C@@H]1C(=O)OC[C@@H]1Cc1cncn1C", "note": "[pilocarpine]", "values": [
      {"measurement": "salivary output", "setting": "[3]", "result": "increase salivary output transiently"}
    ]}
  ]
}
